From patent publication US4753928A, “Process for obtaining sexual products from mammals suitable for natural or artificial fertilization” (INNOFINANCE Altalanos Innovacios Pengintezet, priority 1985, dated 1988)
Where a SMILES comes first, the peptide text is derived from it. [ ]: non-standard residue; d: D form. pGlu = O=C1CC[C@@H](C(=O)O)N1

Key:
Assay type in all cases: in vivo
infant female rats = assay: Super-ovulation induced in infant female rats; details: out of 60 21-day old rats; i.p., 1-8 days, 1 or 2 μg daily or twice daily, finished with 5 or 10 μg
Protocol: 60 pieces of 21-day old infant rats weighing […] were treated with D-Phe^6 -Gln^8 -GnRH in normal saline solution intraperitoneally. The animals, depending on the treatment they were having, were placed into different groups. In the series of treatments lasting 1-8 days, 1 and 2 μg doses, respectively, were administered daily and twice daily. Treatments were finished with 5 and 10 μg doses, respectively.
After treatment all animals were killed with vapour of ether and their ovaries were removed after the animals died and 24 hours after the last treatment. Evaluation was done visually and from hystological samples. We found several developing follicles in the ovaries of the control animals, but not one of them was of Graf-follicle size, and neither corpur luteum, nor corpus haemorrhagicum could be detected. On the other hand, in all treated groups hormonal effect could be seen which made itself evident by the growing of follicles, by their turning into Graf-follicles, by their ovulation and the forming of regular corpus luteum. Enlarging of the oviduct and the uterus was also evident. […] In the group that received for 4 days 2 μg of GnRH analogue twice daily and on the 4th day the 2 μg treatment was followed by a 10 μg dose, in the ovary of all animals immediately before ovulation softened Graf follicles could be observed in large numbers. […]

female lion = test system: female lion
Protocol: In our process an intact, fertile female lion belonging to a Zoo was treated, a lioness of 200 kg body weight, which has given litter five times in its life already. Treatments took place twice in every 3 weeks, using D-[…], […] -GnRH analogue. Treatment was timed in such a way that a 50 μg dose was follwed by a 500 μg dose, than a 3-week pause followed. Treatment was carried out with the already mentioned three weeks interval from commencement of oestrus (month of April) until 50 days following end of oestrus typical of the species (August).

barren chinchillas = assay: Treatment of chinchilla barren for prolonged time
Protocol: Twenty chinchillas barren for at least two years were treated twice daily for three days with 10 μg each of D-Phe^6, Gln^8 -GnRH analogue through intraperitoneal injection. On the 4th day the animals were injected with 75 μg of GnRH analogue, then they were put together with the male. 12 of the Chinchillas gave birth within 4 months. Parallel with the above treatment, 3 animals barren for more than 2 years having very valuable fur as "black" mutant chinchillas were treated twice daily for three days with 10 μg each of D-Phe^6, Gln^8 -GnRH analogue, administered through peritoneal injection. The animals were injected on the 4th day with 75 μg of GnRH analogue, then, as customary, were put together with the male.

bison bull = assay: Inducing spermiogenesis of bison bull in seasonal oligospermia; details: 55th day
Source text: From bison bull belonging to Zoo and weighing 700 kg, under narcosis and by electrical means a sperm sample was obtained and it was established that it was in a seasonal oligospermial state. Symptoms of this were the following: under microscope magnifying 1500 times and used in sperm evaluation the number of sperm found was 5-20 and defective sperms reached 75-80%. The density of the ejaculate was 0.5. Sperms of this quality are unsuitable for fertilization. Thereafter, twice weekly the animal was treated intramuscularly with 200-200 μg dose each of D-phe^6, Gln^8 -GnRH analogue, using the compressed air injection method. On the 55th day following commencement of treatment, under narcosis and with a time lapse of one hour the animal was ejaculated twice. The two ejaculates were combined; their density was 4, their motility 55%. The thus-obtained sperms were deep frozen, then the decrease of motility as a result of deep freezing was checked: this was only 5%.

Structure (SMILES): CC(C)C[C@H](NC(=O)[C@@H](Cc1ccccc1)NC(=O)[C@H](Cc1ccc(O)cc1)NC(=O)[C@H](CO)NC(=O)[C@H](Cc1c[nH]c2ccccc12)NC(=O)[C@H](Cc1c[nH]cn1)NC(=O)[C@@H]1CCC(=O)N1)C(=O)N[C@@H](CCC(N)=O)C(=O)N1CCC[C@H]1C(=O)NCC(N)=O [D-Phe^6, Gln^8 -GnRH analogue, D-Phe^6, Gln^8 -GnRH] ([pGlu]HWSY[dF]LQPG-NH2)
- animals that did not react to the treatment (infant female rats): 4
- pregnancy during treatment (contraception) (female lion; 50 μg followed by 500 μg, every 3 weeks, April to August, regular copulation): did not become pregnant
- behaviour and appearance during treatment (female lion; in vivo): showed no irregularity either in its behaviour or in its appearance
- black mutant chinchillas that gave birth within four months (barren chinchillas; 3 animals barren >2 years, same treatment): all three animals gave birth to young ones
- chinchillas that gave birth within 4 months (barren chinchillas; of twenty barren ≥2 years, 10 μg twice daily 3 days i.p., 75 μg on 4th day): 12
- decrease of motility as a result of deep freezing (bison bull): 5%
- density of ejaculate (bison bull; 200 μg i.m. twice weekly, two ejaculates combined): 4
- sperm motility (bison bull; two ejaculates combined): 55%
